From patent publication US7262269B2, “Method for screening combinational bead library; ligands for cancer cells” (The Regents of University of California, priority 2001, dated 2007)

Tests used:
[1] = test system: non-small-cell lung cancer cell line, A549; assay: cell-growth-on-bead assay, A549; assay type: cell-based, human; details: peptide resynthesized on beads, rescreened with A549 cells
Description: The cell-growth-on-bead assay includes the following steps. A one-bead-one-compound combinatorial library is prepared. The library is preferably synthesized using the “split synthesis” approach described in Lam et al., “A new type of synthetic peptide library,” 82-84. The compounds of the library may be small molecules, peptides, or other types of molecules. An example of a suitable library is a peptide library containing cXXXXXXc peptides, where “c” is D-cysteine which provides intramolecular cyclization by disulfide bonding, and “X” is any L, D, unnatural, or modified amino acid. A suitable solid phase support, such as beads or discs made of polystyrene, agarose, acrylamide, glass, plastic, or paramagnetic substances, is used. Polystyrene beads have been found satisfactory. A standard synthetic solid phase peptide synthesis method, such as fluorenylmethyoxycarbonyl (Fmoc) chemistry or t-butyloxycarbonyl (Boc) chemistry, is used. […]
The chemical structure of the compound (i.e. ligand) on each isolated positive bead 14 is then determined. If the combinatorial library used was a peptide library, then the amino acid sequence of the ligand is preferably determined with an automated protein sequencer, such as the Procise 494 (Applied Biosystems, Foster City, Calif.). Alternatively, the peptide can be released via a cleavable linker and the amino acid sequence determined by mass spectroscopy. […]

[2] = test system: non-malignant bronchoepithelial cell line, HBE-1; assay: cell-growth-on-bead assay, HBE-1; assay type: cell-based; details: HBE-1 cells
Description: The ratio of cells to beads is preferably about 10:1, but can range from about 1:1 to 100:1. The suspension of cells 10 and beads 12 is mixed gently for sufficient time to assure contact of beads 12 with suspended cells 10. The culture plates are incubated in a tissue culture incubator at about 4° C. to about 37° C., preferably 37° C., for a period of about 24 to about 72 hours. The suspension of cells 10 and beads 12 may be kept still or mixed, either continuously or intermittently, during the incubation period.
After the incubation period, beads 12 are observed under a dissecting microscope. […] These beads 14 (referred to as “positive” beads) are removed from the culture plates. A tetrazolium dye that stains live, but not dead, cells can be used to facilitate the identification and removal of the positive beads. If a dye is used, all of the beads are removed after the incubation period and resuspended in fresh medium in new culture plates. The dye is added. The plates are then incubated in a tissue culture incubator at 25° C. to 37° C. for about one to four hours. Live cells 10 convert the dye to a colored metabolite, which results in beads 14 with attached cells appearing colored, allowing them to be easily distinguished from beads 16 without attached cells, which appear colorless, as shown in FIG. 1E. Other dyes that stain live cells can also be used. […]

**Q.** Which “beads with this sequence exhibiting cell attachment and growth on their surfaces” value [1] does the source give for cNGRGEQc here?
**A.** Virtually all

**Q.** What about the “peptide beads on which cell growth was observed” value [2] of the same substance?
**A.** 10%
